These are literature values, as cited in patent US8512957B2, “Toxicity typing using liver stem cells” (Vistagen Therapeutics, Inc., priority 2000, dated 2013).

For data set [1] the following is noted: known toxicity class, printed in first toxicity column (Dev = developmental).
The test system of the next data set is liver. Particulars: known toxicity of the drug, stated in words.

In the case of `CCOC(=O)C(C)(C)Oc1ccc(Cl)cc1` [clofibrate], the “TOXICITIES EV” value in data set [1] is “tc”.
As to `Cc1c(C)c2c(c(C)c1O)CCC(C)(COc1ccc(CC3SC(=O)NC3=O)cc1)O2` (stereo not shown) [troglitazone], the liver toxicity entry in the data set on liver is listed as “rare but severe liver toxicity”.
As for `CN(CCOc1ccc(CC2SC(=O)NC2=O)cc1)c1ccccn1` (stereo not shown) [rosiglitazone], the “TOXICITIES EV” value in data set [1] is “tc”.
Turning to `CCC(=O)O[C@H]1[C@H](O[C@@H]2[C@@H](C)[C@H](O[C@H]3C[C@@](C)(OC)[C@@H](O)[C@H](C)O3)[C@@H](C)C(=O)O[C@H](CC)[C@@](C)(O)[C@H](O)[C@@H](C)C(=O)[C@H](C)C[C@@]2(C)O)O[C@H](C)C[C@@H]1N(C)C` [erythromycin estolate], the liver toxicity entry in the data set with liver was “known liver toxicity”.
